Measured values: ChEMBL document CHEMBL4406848, “Novel water soluble BODIPY compounds: Synthesis, photochemical, DNA interaction, topoisomerases inhibition and photodynamic activity properties” (Eur J Med Chem, 2019)
Calls of active or inactive are those of the source. The rule behind the calls is not given here.

Assays:
HCT-116 [1] = test: Cytotoxicity against human HCT116 cells assessed as cell viability at 10 uM incubated for 24 hrs in dark by MTT assay relative to control; format: functional; settings: HCT-116, 24 h, read-out: Activity
Calf thymus DNA [2] = test: Binding affinity to calf thymus DNA assessed as binding constant incubated for 10 mins by UV-visible spectrophotometry; format: nucleic-acid assay; settings: Bos taurus
HCT-116 [3] = test: Cytotoxicity against human HCT116 cells assessed as cell viability at 0.5 and 1 uM incubated for 24 hrs in dark by MTT assay; format: functional, cell-based
HCT-116 [4] = test: Induction of apoptosis in human HCT116 cells assessed as necrotic cells at 10 uM incubated for 24 hrs in presence of irradiation by annexin V FITC and propidium iodide based flow cytometry (reference value: 0.2 %); format: functional
HCT-116 [5] = test: Cytotoxicity against human HCT116 cells assessed as cell viability at 1 uM incubated for 24 hrs in dark by MTT assay relative to control; format: functional; settings: HCT-116, 24 h, read-out: Activity
HCT-116 [6] = test: Induction of apoptosis in human HCT116 cells assessed as viable cells at 10 uM incubated for 24 hrs in presence of irradiation by annexin V FITC and propidium iodide based flow cytometry (reference value: 94.8 %); format: functional; settings: HCT-116, light or radiation study, read-out: Activity
HCT-116 [7] = test: Cytotoxicity against human HCT116 cells assessed as cell viability at 0.5 uM incubated for 24 hrs in dark by MTT assay relative to control; format: functional; settings: HCT-116, 24 h, read-out: Activity
HCT-116 [8] = test: Phototoxicity against human HCT116 cells assessed as cell viability at 1 uM incubated for 24 hrs under 17.5 mW/cm2 light irradiation by MTT assay relative to control; format: functional; settings: HCT-116, light or radiation study, read-out: Activity
[9] = Photostability of compound in TBS assessed as percentage of photodegradation measured every 10 mins for 1 hr at 17.5 mW/cm'2 irradiation by UV-visible spectrophotometry
HCT-116 [10] = test: Induction of apoptosis in human HCT116 cells assessed as late apoptotic cells at 10 uM incubated for 24 hrs in presence of irradiation by annexin V FITC and propidium iodide based flow cytometry (reference value: 1.6 %); format: functional
[11] = Induction of singlet oxygen generation in DMSO solution assessed as singlet oxygen quantum yield by measuring reduction in DPBF irradiated with 650 nanometer laser light; format: functional
[12] = target: T1, DNA topoisomerase II (Homo sapiens) (UniProt P11388+Q02880); test: Inhibition of recombinant human topoisomerase 2 at 12.5 uM incubated for 1 hr by ethidium bromide staining based agarose gel electrophoresis method relative to control; format: protein assay
HCT-116 [13] = test: Cytotoxicity against human HCT116 cells assessed as cell viability at 100 uM incubated for 24 hrs in dark by MTT assay relative to control; format: functional; settings: HCT-116, 24 h, read-out: Activity
[14] = target: T1, DNA topoisomerase II (Homo sapiens); test: Inhibition of recombinant human topoisomerase 2 at 50 uM incubated for 1 hr by ethidium bromide staining based agarose gel electrophoresis method relative to control; format: protein assay
[15] = target: T2, DNA topoisomerase 1 (Homo sapiens) (UniProt P11387); test: Inhibition of recombinant human topoisomerase 1 at 50 uM incubated for 1 hr by ethidium bromide staining based agarose gel electrophoresis method relative to control
T2 sequence (whole entry): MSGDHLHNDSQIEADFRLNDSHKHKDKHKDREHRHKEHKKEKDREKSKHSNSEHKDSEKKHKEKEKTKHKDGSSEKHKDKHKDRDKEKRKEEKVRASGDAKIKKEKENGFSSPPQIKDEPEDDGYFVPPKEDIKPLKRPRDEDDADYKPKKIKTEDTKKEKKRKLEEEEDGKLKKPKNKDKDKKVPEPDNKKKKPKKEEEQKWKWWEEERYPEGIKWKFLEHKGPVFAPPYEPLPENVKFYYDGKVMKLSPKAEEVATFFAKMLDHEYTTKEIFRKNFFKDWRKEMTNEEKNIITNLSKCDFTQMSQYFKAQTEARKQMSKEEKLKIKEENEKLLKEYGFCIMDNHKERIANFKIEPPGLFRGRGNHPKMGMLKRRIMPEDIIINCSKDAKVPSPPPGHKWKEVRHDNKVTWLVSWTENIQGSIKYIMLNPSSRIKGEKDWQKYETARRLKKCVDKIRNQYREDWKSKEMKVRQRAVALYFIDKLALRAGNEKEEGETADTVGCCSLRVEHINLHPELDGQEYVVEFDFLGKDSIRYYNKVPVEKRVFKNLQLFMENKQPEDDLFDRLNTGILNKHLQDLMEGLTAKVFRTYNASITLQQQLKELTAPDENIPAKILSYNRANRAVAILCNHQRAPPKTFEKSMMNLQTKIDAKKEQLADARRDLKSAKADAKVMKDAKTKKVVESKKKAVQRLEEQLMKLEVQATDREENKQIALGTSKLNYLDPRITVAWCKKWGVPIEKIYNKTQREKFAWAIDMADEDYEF

HCT-116 [16] = test: Phototoxicity against human HCT116 cells assessed as cell viability at 50 uM incubated for 24 hrs under 17.5 mW/cm2 light irradiation by MTT assay relative to control; format: functional; settings: HCT-116, light or radiation study, read-out: Activity
HCT-116 [17] = test: Cytotoxicity against human HCT116 cells assessed as cell viability at 50 uM incubated for 24 hrs in dark by MTT assay relative to control; format: functional; settings: HCT-116, 24 h, read-out: Activity
HCT-116 [18] = test: Cytotoxicity against human HCT116 cells assessed as cell viability at 5 uM incubated for 24 hrs in dark by MTT assay relative to control; format: functional; settings: HCT-116, 24 h, read-out: Activity
DNA = test: Induction of Escherichia coli plasmid pBR322 DNA cleavage assessed as decrease in supercoiled DNA at 3.125 uM in presence of light irradiation and incubated for 1 hr by agarose gel electrophoresis relative to control; format: nucleic-acid assay; design: scale not given: the % may be the effect or the level left
Calf thymus DNA [19] = test: Binding affinity to calf thymus DNA assessed as percentage of hypochromicity incubated for 10 mins by UV-visible spectrophotometry; format: nucleic-acid assay; settings: Bos taurus
HCT-116 [20] = test: Cytotoxicity against human HCT116 cells assessed as cell viability incubated for 24 hrs in dark by MTT assay; format: functional, cell-based; settings: for IC50: HCT-116, 24 h
HCT-116 [21] = test: Phototoxicity against human HCT116 cells assessed as reduction in cell viability incubated for 24 hrs under 17.5 mW/cm2 light irradiation by MTT assay; format: functional, cell-based; settings: HCT-116, light or radiation study
Calf thymus DNA [22] = test: Competitive binding affinity to calf thymus DNA assessed as change in viscosity incubated for 10 mins by viscometer; format: nucleic-acid assay; settings: Bos taurus
[23] = target: T1, DNA topoisomerase II (Homo sapiens); test: Inhibition of recombinant human topoisomerase 2 at 25 uM incubated for 1 hr by ethidium bromide staining based agarose gel electrophoresis method relative to control; format: protein assay
HCT-116 [24] = test: Phototoxicity against human HCT116 cells assessed as cell viability at 10 uM incubated for 24 hrs under 17.5 mW/cm2 light irradiation by MTT assay relative to control; format: functional; settings: HCT-116, light or radiation study, read-out: Activity
HCT-116 [25] = test: Phototoxicity against human HCT116 cells assessed as cell viability at 5 uM incubated for 24 hrs under 17.5 mW/cm2 light irradiation by MTT assay relative to control; format: functional; settings: HCT-116, light or radiation study, read-out: Activity
HCT-116 [26] = test: Induction of apoptosis in human HCT116 cells assessed as early apoptotic cells at 10 uM incubated for 24 hrs in presence of irradiation by annexin V FITC and propidium iodide based flow cytometry (reference value: 3.4 %); format: functional
[27] = Induction of singlet oxygen generation in TBS solution assessed as singlet oxygen quantum yield by measuring reduction in ADMA irradiated with 650 nanometer laser light; format: functional
[28] = target: T1, DNA topoisomerase II (Homo sapiens); test: Inhibition of recombinant human topoisomerase 2 assessed as supercoiled DNA at 50 uM incubated for 1 hr by ethidium bromide staining based agarose gel electrophoresis method relative to control; format: protein assay; design: scale not given: the % may be the effect or the level left

Kb (Calf thymus DNA [2])	inhibition [12]	inhibition [14]	inhibition [15]	Activity (DNA)	Activity (Calf thymus DNA [19])	SMILES	viability at 10 µM (HCT-116 [1])	Activity (HCT-116 [3])	Activity (HCT-116 [4])	viability at 1 µM (HCT-116 [5])	viability at 10 µM (HCT-116 [6])	viability at 0.5 µM (HCT-116 [7])	viability at 1 µM (HCT-116 [8])	Drug degradation [9]	Activity (HCT-116 [10])	Activity [11]	viability at 100 µM (HCT-116 [13])	viability at 50 µM (HCT-116 [16])	viability at 50 µM (HCT-116 [17])	viability at 5 µM (HCT-116 [18])	further results
1.59 ×10³ /M	56.4%	61.5%	89.9%	58.5%	46.7%	CC1=CC(/C=C/c2ccc(OCCCc3ccc[n+](C)c3)c(OCCCc3ccc[n+](C)c3)c2)=[N+]2C1=C(c1ccc(OCCCc3ccc[n+](C)c3)c(OCCCc3ccc[n+](C)c3)c1)c1c(C)cc(/C=C/c3ccc(OCCCc4ccc[n+](C)c4)c(OCCCc4ccc[n+](C)c4)c3)n1[B-]2(F)F.[I-].[I-].[I-].[I-].[I-].[I-]	96%	inactive	0.1%	100%	95.5%	100%	100%	18.7%	1%	0.62	90%	85%	100%	96%	IC50 (HCT-116 [20]): > 100 µM; IC50 (HCT-116 [21]): > 100 µM; Activity (Calf thymus DNA [22]): Active; inhibition [23]: 58.7%; viability at 10 µM (HCT-116 [24]): 99%; viability at 5 µM (HCT-116 [25]): 100%; Activity (HCT-116 [26]): 3.3%; Activity [27]: 0.3; Activity [28]: 87.7%
1.87 ×10⁴ /M	54.6%	56.2%	89%	76.8%	47.8%	CC1=CC(/C=C/c2ccc(OCCCc3ccc[n+](C)c3)cc2)=[N+]2C1=C(c1ccc(OCCCc3ccc[n+](C)c3)cc1)c1c(C)cc(/C=C/c3ccc(OCCCc4ccc[n+](C)c4)cc3)n1[B-]2(F)F.[I-].[I-].[I-]	88%	inactive	3.4%	100%	9.6%	100%	97%	17.7%	32.5%	0.46	57%	6%	67%	91%	Activity (HCT-116 [20]): Dose-dependent effect; IC50 (HCT-116 [20]): > 100 µM; IC50 (HCT-116 [21]): 3.95 µM; Activity (Calf thymus DNA [22]): Active; inhibition [23]: 54.6%; viability at 10 µM (HCT-116 [24]): 10%; viability at 5 µM (HCT-116 [25]): 25%; Activity (HCT-116 [26]): 54.4%; Activity [27]: 0.21; Activity [28]: 77.2%
